Experimental data: US8609690B2, “Aryl- and heteroarylcarbonyl derivatives of substituted nortropanes, medicaments containing such compounds and their use” (Boehringer Ingelheim International GmbH, priority 2008, dated 2013)

Target: T1, 11β-HSD 1 (Homo sapiens, UniProt P28845)
T1 construct: detecting cortisol generated from cortisterone by human liver microsomes; from tissue; host or cells: human liver microsomes
Test: In vitro inhibition of 11β-HSD 1, HTRF detection of cortisol generated by human liver microsomes
Format: biochemical
Conditions: 1 μM test compound, 100% indicates no inhibition, zero or below zero indicates complete inhibition (relative to carbenoxolone)
Experimental: Briefly, compounds were incubated for 1 hour at 37° C. in Tris buffer (20 mM tris, 5 mM EDTA, pH 6.0) containing NADPH (200 μM) and cortisone (80 nM). Cortisol generated in the reaction is then detected with a competitive immunoassay, involving two HTRF conjugates: cortisol linked to XL665 and anti-cortisol antibody labeled with Europium cryptate. The incubation period for detection reaction was typically 2 hours. The amount of cortisol is determined by reading the time-resolved fluorescence of the wells (Ex 320/75 nm; Em 615/8.5 nm and 665/7.5 nm). The ratio of the two emission signals is then calculated (Em665*10000/Em615). […] Each assay also contained a calibration curve with cortisol to transform the fluorescent data into cortisol concentrations. Percent inhibition of each compound was determined relative to the carbenoxolone signal. In Table 2 the 11β-HSD 1 inhibitory activities at 1 μM concentration of test compound, determined as described above, of the compounds listed in Table 3 are compiled, wherein 100% indicates no inhibition and a value of zero or below zero indicates complete inhibition.

T1 sequence (P28845 whole entry): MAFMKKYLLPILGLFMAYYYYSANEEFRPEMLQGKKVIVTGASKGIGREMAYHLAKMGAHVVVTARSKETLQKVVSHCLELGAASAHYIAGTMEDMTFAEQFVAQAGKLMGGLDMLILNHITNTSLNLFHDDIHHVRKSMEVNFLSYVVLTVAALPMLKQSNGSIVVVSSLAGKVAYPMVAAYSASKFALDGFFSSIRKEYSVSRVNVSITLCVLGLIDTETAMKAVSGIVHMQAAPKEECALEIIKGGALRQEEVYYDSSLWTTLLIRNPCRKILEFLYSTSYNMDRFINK

SMILES	Inhibitory activity on 11β-HSD 1, % CTL [% CTL]
O=C(c1ccc2[nH]cnc2c1)N1[C@@H]2CC[C@H]1C[C@@H](c1ccc(F)cc1)C2 [Example 1, endo-(1H-Benzoimidazol-5-yl)-[3-(4-fluoro-phenyl)-8-aza-bicyclo[3.2.1]oct-8-yl]-methanone]	−18
O=C(c1ccc2c(c1)OCCO2)N1[C@@H]2CC[C@H]1C[C@@H](c1ccc(F)cc1)C2 [Example 3, endo-(2,3-Dihydro-benzo[1,4]dioxin-6-yl)-[3-(4-fluoro-phenyl)-8-aza-bicyclo[3.2.1]oct-8-yl]-methanone]	−32
Cc1cc(C(F)F)n2ncc(C(=O)N3[C@@H]4CC[C@H]3C[C@@H](c3ccc(F)cc3)C4)c2n1 [Example 4, endo-(7-Difluoromethyl-5-methyl-pyrazolo[1,5-a]pyrimidin-3-yl)-[3-(4-fluoro-phenyl)-8-aza-bicyclo[3.2.1]oct-8-yl]-methanone]	87
O=C(c1n[nH]c2c1CCC2)N1[C@@H]2CC[C@H]1C[C@@H](c1ccc(F)cc1)C2 [Example 6, endo-[3-(4-Fluoro-phenyl)-8-aza-bicyclo[3.2.1]oct-8-yl]-(1,4,5,6-tetrahydro-cyclopentapyrazol-3-yl)-methanone]	88
O=C(c1cccs1)N1[C@@H]2CC[C@H]1C[C@@H](c1ccc(F)cc1)C2 [Example 7, endo-[3-(4-Fluoro-phenyl)-8-aza-bicyclo[3.2.1]oct-8-yl]-thiophen-2-yl-methanone]	68
Cc1cc(=O)n2ncc(C(=O)N3[C@@H]4CC[C@H]3C[C@@H](c3ccc(F)cc3)C4)c2[nH]1 [Example 8, endo-3-[3-(4-Fluoro-phenyl)-8-aza-bicyclo[3.2.1]octane-8-carbonyl]-5-methyl-4H-pyrazolo[1,5-a]pyrimidin-7-one]	87
COC(=O)c1ccc(C(=O)N2[C@@H]3CC[C@H]2C[C@@H](c2ccc(C)cc2)C3)s1 [Example 9, endo-5-(3-p-Tolyl-8-aza-bicyclo[3.2.1]octane-8-carbonyl)-thiophene-2-carboxylic acid methyl ester]	87
CC(C)(C)c1cc(C(=O)N2[C@@H]3CC[C@H]2C[C@@H](c2ccc(F)cc2)C3)[nH]n1 [Example 11, endo-(5-tert-Butyl-2H-pyrazol-3-yl)-[3-(4-fluoro-phenyl)-8-aza-bicyclo[3.2.1]oct-8-yl]-methanone]	82
O=C(c1cc(F)cc(F)c1)N1[C@@H]2CC[C@H]1C[C@@H](c1ccc(F)cc1)C2 [Example 12, endo-(3,5-Difluoro-phenyl)-[3-(4-fluoro-phenyl)-8-aza-bicyclo[3.2.1]oct-8-yl]-methanone]	85
Cc1ccc([C@H]2C[C@H]3CC[C@@H](C2)N3C(=O)c2cscn2)cc1 [Example 13, endo-Thiazol-4-yl-(3-p-tolyl-8-aza-bicyclo[3.2.1]oct-8-yl)-methanone]	62
Cc1ccc([C@H]2C[C@H]3CC[C@@H](C2)N3C(=O)c2cccs2)cc1 [Example 15, endo-Thiophen-2-yl-(3-p-tolyl-8-aza-bicyclo[3.2.1]oct-8-yl)-methanone]	56
Cc1ccc([C@H]2C[C@H]3CC[C@@H](C2)N3C(=O)c2ccco2)cc1 [Example 17, endo-Furan-2-yl-(3-p-tolyl-8-aza-bicyclo[3.2.1]oct-8-yl)-methanone]	93
CS(=O)(=O)N1CCc2cc(C(=O)N3[C@@H]4CC[C@H]3C[C@@H](c3ccc(F)cc3)C4)ccc21 [Example 20, endo-[3-(4-Fluoro-phenyl)-8-aza-bicyclo[3.2.1]oct-8-yl]-(1-methanesulfonyl-2,3-dihydro-1H-indol-5-yl)-methanone]	87
O=C(c1n[nH]c2c1CCCC2)N1[C@@H]2CC[C@H]1C[C@@H](c1ccc(F)cc1)C2 [Example 23, endo-[3-(4-Fluoro-phenyl)-8-aza-bicyclo[3.2.1]oct-8-yl]-(4,5,6,7-tetrahydro-1H-indazol-3-yl)-methanone]	83
CC(C)CN1Cc2cccc(C(=O)N3[C@@H]4CC[C@H]3C[C@@H](c3ccc(F)cc3)C4)c2C1=O [Example 29, endo-7-[3-(4-Fluoro-phenyl)-8-aza-bicyclo[3.2.1]octane-8-carbonyl]-2-isobutyl-2,3-dihydro-isoindol-1-one]	97
O=C(c1nsc(Cl)c1Cl)N1[C@@H]2CC[C@H]1C[C@@H](c1ccc(F)cc1)C2 [Example 30, endo-(4,5-Dichloro-isothiazol-3-yl)-[3-(4-fluoro-phenyl)-8-aza-bicyclo[3.2.1]oct-8-yl]-methanone]	88
O=C(c1ccc(OC2CSC2)cc1)N1[C@@H]2CC[C@H]1C[C@@H](c1ccc(F)cc1)C2 [Example 31, endo-[3-(4-Fluoro-phenyl)-8-aza-bicyclo[3.2.1]oct-8-yl]-[4-(thietan-3-yloxy)-phenyl]-methanone]	86
Cc1ccc([C@H]2C[C@H]3CC[C@@H](C2)N3C(=O)c2ccc(OC3CSC3)cc2)cc1 [Example 32, endo-[4-(Thietan-3-yloxy)-phenyl]-(3-p-tolyl-8-aza-bicyclo[3.2.1]oct-8-yl)-methanone]	94
O=C(c1nccc2ccccc12)N1[C@@H]2CC[C@H]1C[C@@H](c1ccc(F)cc1)C2 [Example 33, endo-[3-(4-Fluoro-phenyl)-8-aza-bicyclo[3.2.1]oct-8-yl]-isoquinolin-1-yl-methanone]	88
O=C(c1ccco1)N1[C@@H]2CC[C@H]1C[C@@H](c1ccc(F)cc1)C2 [Example 34, endo-[3-(4-Fluoro-phenyl)-8-aza-bicyclo[3.2.1]oct-8-yl]-furan-2-yl-methanone]	75
O=C(c1cnn2cccnc12)N1[C@@H]2CC[C@H]1C[C@@H](c1ccc(F)cc1)C2 [Example 35, endo-[3-(4-Fluoro-phenyl)-8-aza-bicyclo[3.2.1]oct-8-yl]-pyrazolo[1,5-a]pyrimidin-3-yl-methanone]	62
NC(=O)c1ccc(C(=O)N2[C@@H]3CC[C@H]2C[C@@H](c2ccc(F)cc2)C3)c(F)c1 [Example 36, endo-3-Fluoro-4-[3-(4-fluoro-phenyl)-8-aza-bicyclo[3.2.1]octane-8-carbonyl]-benzamide]	−28
O=C(c1cccc2ncccc12)N1[C@@H]2CC[C@H]1C[C@@H](c1ccc(F)cc1)C2 [Example 37, endo-[3-(4-Fluoro-phenyl)-8-aza-bicyclo[3.2.1]oct-8-yl]-quinolin-5-yl-methanone]	39
CCn1ncc(C(=O)N2[C@@H]3CC[C@H]2C[C@@H](c2ccc(C)cc2)C3)c1C [Example 38, endo-(1-Ethyl-5-methyl-1H-pyrazol-4-yl)-(3-p-tolyl-8-aza-bicyclo[3.2.1]oct-8-yl)-methanone]	12
Cn1c(=O)n(C)c2cc(C(=O)N3[C@@H]4CC[C@H]3C[C@@H](c3ccc(F)cc3)C4)ccc21 [Example 39, endo-5-[3-(4-Fluoro-phenyl)-8-aza-bicyclo[3.2.1]octane-8-carbonyl]-1,3-dimethyl-1,3-dihydro-benzoimidazol-2-one]	43
O=C(c1cccc(N2CCCCS2(=O)=O)c1)N1C2CCC1CC(c1ccc(F)cc1)C2 (stereo not drawn) [Example 40, endo-[3-(1,1-Dioxo-1lambda*6*-[1,2]thiazinan-2-yl)-phenyl-[3-(4-fluoro-phenyl)-8-aza-bicyclo[3.2.1]oct-8-yl]-methanone]	98
Cc1cc(C(F)(F)F)n2nc(C(=O)N3[C@@H]4CC[C@H]3C[C@@H](c3ccc(F)cc3)C4)cc2n1 [Example 42, endo-[3-(4-Fluoro-phenyl)-8-aza-bicyclo[3.2.1]oct-8-yl]-(5-methyl-7-trifluoromethyl-pyrazolo[1,5-a]pyrimidin-2-yl)-methanone]	93
O=C(c1cscn1)N1[C@@H]2CC[C@H]1C[C@@H](c1ccc(F)cc1)C2 [Example 43, endo-[3-(4-Fluoro-phenyl)-8-aza-bicyclo[3.2.1]oct-8-yl]-thiazol-4-yl-methanone]	95
COc1cc(C(=O)N2[C@@H]3CC[C@H]2C[C@@H](c2ccc(F)cc2)C3)cc(OC)c1OC [Example 44, endo-[3-(4-Fluoro-phenyl)-8-aza-bicyclo[3.2.1]oct-8-yl]-(3,4,5-trimethoxy-phenyl)-methanone]	57

Same assay, conditions: 1 μM test compound, 100% indicates no inhibition, zero or below zero indicates complete inhibition (relative to carbenoxolone), 1 µM

SMILES	Inhibitory activity on 11β-HSD 1, % CTL [% CTL]
NC(=O)c1ccc(C(=O)N2[C@@H]3CC[C@H]2C[C@@H](c2ccc(F)cc2)C3)cc1 [Example 2, endo-4-[3-(4-Fluoro-phenyl)-8-aza-bicyclo[3.2.1]octane-8-carbonyl]-benzamide]	−27
O=C(c1ccccn1)N1[C@@H]2CC[C@H]1C[C@@H](c1ccc(F)cc1)C2 [Example 18, endo-[3-(4-Fluoro-phenyl)-8-aza-bicyclo[3.2.1]oct-8-yl]-pyridin-2-yl-methanone]	97
